# Earlier results, collected in PMC9516282, “Low prevalence of influenza A strains with resistance markers in Brazil during 2017–2019 seasons” (Frontiers in Public Health, 2022).
# Test system: PA:E199G
# Design: method as in PMID 30670144
# Conditions: virus with PA:E199G substitution
smiles,measurement,value
"COC(=O)OCOc1c2n(ccc1=O)N([C@@H]1c3ccccc3SCc3c1ccc(F)c3F)[C@@H]1COCCN1C2=O [BXM, baloxavir marboxil]",RI (reduced inhibition) to BXM,4.5 fold
